# Measured values published in patent publication US20130129667A1, “Attractant compounds for yellow jacket wasps” (priority 2007, published 2013).
# Experiments:
# Assay type in all cases: in vivo
# [1] = test system: Other insects; test: Field trap catch of other insects (selectivity)
# Protocol: (§1) On the top inside of the bottle, 2 cm below the cap 17, a 10 ml 'micro' glass vial 19 was installed. In this small container, 0.1 ml of an attractive compound 20 was deposited. In the bottom of the 500 ml bottle, 200 ml of water with liquid household detergent 22 was placed. The traps 10 or containers with the attractant 20, were placed randomly in different species of trees, mostly 'thorns,' Acacia […] Tebo, […] Lo Orozco, and apple trees in Casablanca (Chile), each hung from a wire 24, at a height of about 11⁄2 m from the ground, with a separation between them of about 10 m. […] The traps 10 were placed in Catapilco in the […] farm the 19th of February 2007, in the geographical locations of 33° 37' 06'' S. and 71° 19' 14'' O, for the Campo Lindo farm in Casablanca in 33° 14' 23'' S. and 71° 17' 37'' O on the 20th of February 2007 and Lo Orozco in 33° 13'26'' S. and 71° 24' 04'' O the 9th of April 2007. […] In the extent it was necessary the containers were filled up with water and detergent.
# [2] = test system: Vespula germanica; test: Field trap catch of yellow jacket wasps with attractant
# Protocol: as §1
# [3] = test system: Polistes; test: Field trap catch of Polistes (selectivity); conditions: Lo Orozco; 21 days; five containers per attractant
# Protocol: (§2) On the top inside of the bottle, 2 cm below the cap 17, a 10 ml 'micro' glass vial 19 was installed. In this small container, 0.1 ml of an attractive compound 20 was deposited. In the bottom of the 500 ml bottle, 200 ml of water with liquid household detergent 22 was placed. The traps 10 or containers with the attractant 20, were placed randomly in different species of trees, mostly 'thorns,' Acacia […] Tebo, […] Lo Orozco, and apple trees in Casablanca (Chile), each hung from a wire 24, at a height of about 11⁄2 m from the ground, with a separation between them of about 10 m. Two replications were used per each attractant in Catapilco, and five replications in Lo Orozco and Casablanca. The traps 10 were placed in Catapilco in the […] farm the 19th of February 2007, in the geographical locations of 33° 37' 06'' S. and 71° 19' 14'' O, for the Campo Lindo farm in Casablanca in 33° 14' 23'' S. and 71° 17' 37'' O on the 20th of February 2007 and Lo Orozco in 33° 13'26'' S. and 71° 24' 04'' O the 9th of April 2007. […] In the extent it was necessary the containers were filled up with water and detergent.
# [4] = test system: Bees; test: Field trap catch of bees (selectivity); conditions: Lo Orozco; 21 days; five containers per attractant
# Protocol: as §2
# [5] = Campo Lindo farm, Casablanca, 18 days, two containers per attractant, 0.1 ml
# [6] = Manantiales farm, Catapilco, 17 days, two containers per attractant, 0.1 ml
# [7] = Lo Orozco, 21 days, five containers per attractant
Compound,"Total number of other insects captured [1, 5]","Total number of other insects captured [1, 6]","Total number of V. germanica workers captured [2, 5]","Total number of V. germanica workers captured [2, 6]",Total number of Polistes captured [3],"Total number of other insects captured [1, 7]",Total number of Bees captured [4],Attraction compared with the standard mixture of acetic acid with isobutanol ([2]; Lo Orozco field tests),"Total number of V. germanica workers captured [2, 7]"
CCCCCCCCCCCCO [1-Dodecanol],1 Sirfid,0,102,0,,,,,
CCCCCC(C)=O [2-Heptanone],0,0,92,69,,,,,
CCCCCCCC(C)=O [2-Nonanone],0,0,178,0,,,,,
CCCCCCC(C)=O [2-Octanone],1 Moth,0,209,416,1,0,0,superior,2.673
CCCCCC(=O)CC [3-Octanone],0,,218,356,0,0,0,,892
CCCCCCC=O [Heptaldehyde],0,0,129,9,,,,,
CCCCCCCCC=O [Nonyl aldehyde],0,3 Bees,97,1,,,,,
CCCCCCCC=O [Octyl aldehyde],0,0,101,3,,,,,
"CCCCC/C=C/C=C/C=O [Trans,trans-2,4-decadienal]",0,0,5,84,,,,,
"CCCC/C=C/C=C/C=O [Trans,trans-2,4-nonadienal]",0,0,218,0,,,,,
CCCC/C=C/C=O [Trans-2-heptenal],0,0,252,407,0,0,0,,999
CCCCC/C=C/CO [Trans-2-octen-1-ol],0,1 Bee,297,474,1,0,2,,
CCCCC=O [Valeraldehyde],0,0,84,24,,,,,
